{"source": "patent US6395896B2", "about": "“Pyridazine derivatives, manufacturing method and related composition” (Shiseido Co., Ltd., priority 1999, dated 2002)", "key": {"[1]": {"assay": "Drug stabilization effect (sequestering agent combination)", "design": "key to Sunlight exposure (80 MJ) Appearance: A: No change; B: No almost change; C: Yes change", "conditions": "for Sunlight exposure (80 MJ) Appearance / Sunlight exposure (80 MJ) Residual yield [%]: amounts wt %", "description": "Next, when combined with a sequestering agent, the photostabilization effect and appearance change of a composition for each drug was studied by the following evaluation formulation.\nEach test sample was prepared. Appearance change of the samples exposed to sunlight (around 80 MJ) was observed (visual evaluation). Also, residual yield of a drug was measured by liquid chromatography."}, "[2]": {"assay": "Perfume stabilization effect (photostabilizer, sunlight exposure, judgement by perfumier)", "design": "key to Sunlight exposure (80 MJ) Smell evaluation / Sunlight exposure (80 MJ) evaluation: A: No change; B: No almost change; C: Yes change", "description": "Next, the photostabilization effect for each perfume was studied by the following evaluation formulation.\nEach test sample was prepared. Change of smell of sample exposed to sunlight (80 MJ) was observed (judgement by perfumier)."}, "[3]": {"conditions": "drug 2-o-α-α-glucopyranosyl-L-ascorbic acid 2.0, photostabilizer 0.03 + Sodium metaphosphate 0.03"}, "[4]": {"conditions": "drug 2-o-α-α-glucopyranosyl-L-ascorbic acid 2.0, photostabilizer 0.03, no sequestering agent"}, "[5]": {"conditions": "drug Dibutylhydroxytoluene 0.01, photostabilizer 0.03 + Sodium metaphosphate 0.03"}, "[6]": {"conditions": "drug Dibutylhydroxytoluene 0.01, photostabilizer 0.03, no sequestering agent"}, "[7]": {"conditions": "drug Dipotassium glycyrrhizinate 0.05, photostabilizer 0.03 + Sodium metaphosphate 0.03"}, "[8]": {"conditions": "drug Dipotassium glycyrrhizinate 0.05, photostabilizer 0.03, no sequestering agent"}, "[9]": {"conditions": "drug L-ascorbic acid 2-(dl-α-tocopheryl hydrogen phosphate) potassium salt 0.01, photostabilizer 0.03 + Trisodium hydroxyethyl ethylenediamine triacetate 0.03"}, "[10]": {"conditions": "drug L-ascorbic acid 2-(dl-α-tocopheryl hydrogen phosphate) potassium salt 0.01, photostabilizer 0.03, no sequestering agent"}, "[11]": {"conditions": "drug Salicylic acid 0.1, photostabilizer 0.03 + Trisodium ethylenediamine tetraacetate 0.03"}, "[12]": {"conditions": "drug Salicylic acid 0.1, photostabilizer 0.03, no sequestering agent"}}}
{"smiles": "Oc1nncc(N2CCOCC2)c1N1CCOCC1", "note": "[4,5-Dimorpholino-3-hydroxypyridazine]", "values": [{"measurement": "Sunlight exposure (80 MJ) Appearance", "setting": "[1]; [3]", "result": "A"}, {"measurement": "Sunlight exposure (80 MJ) Residual yield [%]", "setting": "[1]; [3]", "result": 99.3, "unit": "%"}, {"measurement": "Sunlight exposure (80 MJ) Appearance", "setting": "[1]; [4]", "result": "A"}, {"measurement": "Sunlight exposure (80 MJ) Residual yield [%]", "setting": "[1]; [4]", "result": 98.3, "unit": "%"}, {"measurement": "Sunlight exposure (80 MJ) Appearance", "setting": "[1]; [5]", "result": "A"}, {"measurement": "Sunlight exposure (80 MJ) Residual yield [%]", "setting": "[1]; [5]", "result": 98.8, "unit": "%"}, {"measurement": "Sunlight exposure (80 MJ) Appearance", "setting": "[1]; [6]", "result": "B"}, {"measurement": "Sunlight exposure (80 MJ) Residual yield [%]", "setting": "[1]; [6]", "result": 95.8, "unit": "%"}, {"measurement": "Sunlight exposure (80 MJ) Appearance", "setting": "[1]; [7]", "result": "A"}, {"measurement": "Sunlight exposure (80 MJ) Residual yield [%]", "setting": "[1]; [7]", "result": 100.0, "unit": "%"}, {"measurement": "Sunlight exposure (80 MJ) Appearance", "setting": "[1]; [8]", "result": "A"}, {"measurement": "Sunlight exposure (80 MJ) Residual yield [%]", "setting": "[1]; [8]", "result": 97.2, "unit": "%"}, {"measurement": "Sunlight exposure (80 MJ) Appearance", "setting": "[1]; [9]", "result": "A"}, {"measurement": "Sunlight exposure (80 MJ) Residual yield [%]", "setting": "[1]; [9]", "result": 99.4, "unit": "%"}, {"measurement": "Sunlight exposure (80 MJ) Appearance", "setting": "[1]; [10]", "result": "B"}, {"measurement": "Sunlight exposure (80 MJ) Residual yield [%]", "setting": "[1]; [10]", "result": 98.5, "unit": "%"}, {"measurement": "Sunlight exposure (80 MJ) Appearance", "setting": "[1]; [11]", "result": "A"}, {"measurement": "Sunlight exposure (80 MJ) Residual yield [%]", "setting": "[1]; [11]", "result": 100.1, "unit": "%"}, {"measurement": "Sunlight exposure (80 MJ) Appearance", "setting": "[1]; [12]", "result": "B"}, {"measurement": "Sunlight exposure (80 MJ) Residual yield [%]", "setting": "[1]; [12]", "result": 99.2, "unit": "%"}, {"measurement": "residual yield of a drug", "setting": "[1]; with a sequestering agent, compared with compositions without, Table 30", "result": "very small"}, {"measurement": "Sunlight exposure (80 MJ) Smell evaluation", "setting": "[2]; Base perfume Aldehyde 0.03 wt %, photostabilizer 0.2 wt %", "result": "A"}, {"measurement": "Sunlight exposure (80 MJ) Smell evaluation", "setting": "[2]; Base perfume Animal 0.03 wt %, photostabilizer 0.3 wt %", "result": "A"}, {"measurement": "Sunlight exposure (80 MJ) Smell evaluation", "setting": "[2]; Base perfume Chypre 0.03 wt %, photostabilizer 0.01 wt %", "result": "A"}, {"measurement": "Sunlight exposure (80 MJ) Smell evaluation", "setting": "[2]; Base perfume Citrus 0.03 wt %, photostabilizer 0.03 wt %", "result": "A"}, {"measurement": "Sunlight exposure (80 MJ) Smell evaluation", "setting": "[2]; Base perfume Fougere 0.03 wt %, photostabilizer 0.1 wt %", "result": "A"}, {"measurement": "Sunlight exposure (80 MJ) Smell evaluation", "setting": "[2]; Base perfume Fruity 0.03 wt %, photostabilizer 0.1 wt %", "result": "A"}, {"measurement": "Sunlight exposure (80 MJ) Smell evaluation", "setting": "[2]; Base perfume Green 0.03 wt %, photostabilizer 0.05 wt %", "result": "A"}, {"measurement": "Sunlight exposure (80 MJ) Smell evaluation", "setting": "[2]; Base perfume Jasmine 0.03 wt %, photostabilizer 0.01 wt %", "result": "A"}, {"measurement": "Sunlight exposure (80 MJ) Smell evaluation", "setting": "[2]; Base perfume Muguet 0.03 wt %, photostabilizer 0.05 wt %", "result": "A"}, {"measurement": "Sunlight exposure (80 MJ) Smell evaluation", "setting": "[2]; Base perfume Oriental 0.03 wt %, photostabilizer 0.1 wt %", "result": "A"}, {"measurement": "Sunlight exposure (80 MJ) Smell evaluation", "setting": "[2]; Base perfume Rose 0.03 wt %, photostabilizer 0.05 wt %", "result": "A"}, {"measurement": "Sunlight exposure (80 MJ) Smell evaluation", "setting": "[2]; Base perfume Spicy 0.03 wt %, photostabilizer 0.2 wt %", "result": "A"}, {"measurement": "Sunlight exposure (80 MJ) Smell evaluation", "setting": "[2]; Base perfume Woody 0.03 wt %, photostabilizer 0.1 wt %", "result": "A"}, {"measurement": "Sunlight exposure (80 MJ) Smell evaluation", "setting": "[2]; Natural perfume Jasmine oil 0.03 wt %, photostabilizer 0.05 wt %", "result": "A"}, {"measurement": "Sunlight exposure (80 MJ) Smell evaluation", "setting": "[2]; Natural perfume Lavender oil 0.03 wt %, photostabilizer 0.1 wt %", "result": "A"}, {"measurement": "Sunlight exposure (80 MJ) Smell evaluation", "setting": "[2]; Natural perfume Neroli oil 0.03 wt %, photostabilizer 0.1 wt %", "result": "A"}, {"measurement": "Sunlight exposure (80 MJ) Smell evaluation", "setting": "[2]; Natural perfume Rose oil 0.03 wt %, photostabilizer 0.05 wt %", "result": "A"}, {"measurement": "Sunlight exposure (80 MJ) Smell evaluation", "setting": "[2]; Natural perfume Ylang ylang oil 0.03 wt %, photostabilizer 0.2 wt %", "result": "A"}, {"measurement": "Sunlight exposure (80 MJ) Smell evaluation", "setting": "[2]; Synthetic perfume Citral 0.03 wt %, photostabilizer 0.1 wt %", "result": "A"}, {"measurement": "Sunlight exposure (80 MJ) Smell evaluation", "setting": "[2]; Synthetic perfume Limonene 0.03 wt %, photostabilizer 0.05 wt %", "result": "A"}, {"measurement": "Sunlight exposure (80 MJ) Smell evaluation", "setting": "[2]; Synthetic perfume Linalool 0.03 wt %, photostabilizer 0.05 wt %", "result": "A"}, {"measurement": "Sunlight exposure (80 MJ) Smell evaluation", "setting": "[2]; Synthetic perfume Linalyl acetate 0.03 wt %, photostabilizer 0.1 wt %", "result": "A"}, {"measurement": "Sunlight exposure (80 MJ) Smell evaluation", "setting": "[2]; Synthetic perfume Rose oxide 0.03 wt %, photostabilizer 0.2 wt %", "result": "A"}, {"measurement": "change of smell", "setting": "[2]; base perfume, summary of Table 19", "result": "very small in comparison with other photostabilizers"}, {"measurement": "Sunlight exposure (80 MJ) evaluation", "setting": "[2]; natural perfume Ambergris oil, photostabilizer amount 0.3 wt %", "result": "A"}, {"measurement": "Sunlight exposure (80 MJ) evaluation", "setting": "[2]; natural perfume Bergamot oil, photostabilizer amount 0.1 wt %", "result": "A"}, {"measurement": "Sunlight exposure (80 MJ) evaluation", "setting": "[2]; natural perfume Castoreum oil, photostabilizer amount 0.3 wt %", "result": "A"}, {"measurement": "Sunlight exposure (80 MJ) evaluation", "setting": "[2]; natural perfume Cinnamon oil, photostabilizer amount 0.01 wt %", "result": "A"}, {"measurement": "Sunlight exposure (80 MJ) evaluation", "setting": "[2]; natural perfume Civet oil, photostabilizer amount 0.2 wt %", "result": "A"}]}
